Data from patent US20250074888A1, “PYRIDAZINE DERIVATIVES AS MODULATORS OF NLRP3 INFLAMMASOME AND RELATED METHODS” (Neumora Therapeutics, Inc., priority 2021, published 2025).
pIC50: −log10 of the molar value.

Assays:
[1] = molecular target: NLRP3 inflammasome (Homo sapiens, UniProt Q96P20); assay: NLRP3 inflammasome activation in THP1 macrophages (LPS priming, nigericin), IL-1β AlphaLISA; format: cell-based; settings: PMA-differentiated THP1, LPS 20 ng/ml 3 hrs, compound 1 hr, Nigericin 6.7 uM 3 hrs, supernatant
[2] = system: IL-6; assay: IL-6 release from LPS-primed, nigericin-treated THP1 macrophages, Hu IL-6 AlphaLISA; format: cell-based; settings: Homo sapiens, THP-1; PMA-differentiated THP1, LPS 20 ng/ml 3 hrs, compound 1 hr, Nigericin 6.7 uM 3 hrs, supernatant

Chain of NLRP3 inflammasome (Q96P20 whole entry): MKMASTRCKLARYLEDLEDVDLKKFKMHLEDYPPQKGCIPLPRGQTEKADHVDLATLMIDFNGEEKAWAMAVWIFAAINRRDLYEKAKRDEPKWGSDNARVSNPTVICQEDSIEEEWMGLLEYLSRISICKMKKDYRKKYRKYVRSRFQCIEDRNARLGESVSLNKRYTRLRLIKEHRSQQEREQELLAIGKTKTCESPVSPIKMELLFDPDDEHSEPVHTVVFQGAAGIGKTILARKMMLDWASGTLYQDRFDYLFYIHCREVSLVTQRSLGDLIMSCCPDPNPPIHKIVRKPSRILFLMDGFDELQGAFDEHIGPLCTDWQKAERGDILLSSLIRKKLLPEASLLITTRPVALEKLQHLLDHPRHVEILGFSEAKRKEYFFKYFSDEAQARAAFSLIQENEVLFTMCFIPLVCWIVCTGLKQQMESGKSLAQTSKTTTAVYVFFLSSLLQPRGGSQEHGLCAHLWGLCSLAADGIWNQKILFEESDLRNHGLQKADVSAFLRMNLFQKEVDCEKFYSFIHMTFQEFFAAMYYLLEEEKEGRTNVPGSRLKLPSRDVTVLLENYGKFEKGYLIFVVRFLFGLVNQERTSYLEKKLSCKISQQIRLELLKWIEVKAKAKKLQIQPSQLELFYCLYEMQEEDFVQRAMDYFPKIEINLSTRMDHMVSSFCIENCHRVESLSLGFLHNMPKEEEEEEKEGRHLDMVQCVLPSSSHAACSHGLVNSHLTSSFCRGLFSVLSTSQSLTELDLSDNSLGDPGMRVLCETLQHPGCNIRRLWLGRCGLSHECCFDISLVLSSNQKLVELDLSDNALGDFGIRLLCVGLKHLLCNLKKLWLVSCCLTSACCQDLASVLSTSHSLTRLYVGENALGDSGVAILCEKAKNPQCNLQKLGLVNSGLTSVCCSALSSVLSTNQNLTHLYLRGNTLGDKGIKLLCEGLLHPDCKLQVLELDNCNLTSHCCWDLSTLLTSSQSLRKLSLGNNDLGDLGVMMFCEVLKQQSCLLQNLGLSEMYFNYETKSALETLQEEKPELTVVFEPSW

## Cc1cc(-c2ccccc2C(F)F)nnc1N[C@@H]1CCCN(C)C1 [compound 160]
[1]
  pIC50: 6.00 to 6.30
[2]
  pIC50: 5.30 to 6.00

## Cc1cc(N[C@@H]2CCCN(C)C2)nnc1-c1ccc(F)cc1 [compound 16]
[1]
  pIC50: 7.30 to 8.00
[2]
  pIC50: < 5.00

## Cc1cc(N[C@@H]2CCCN(C)C2)nnc1-c1ccc(F)cc1C#N [compound 96]
[1]
  pIC50: < 6.00
[2]
  pIC50: < 5.00

## Cc1cc(N[C@@H]2CCCN(C)C2)nnc1-c1ccc(C2CC2)cc1 [compound 93]
[1]
  pIC50: 7.30 to 8.00
[2]
  pIC50: < 5.00

## CC(C)c1cc(N[C@@H]2CCCN(C)C2)nnc1-c1ccc(C(F)(F)F)cc1 [compound 23]
[1]
  pIC50: 6.30 to 7.00
[2]
  pIC50: < 5.00

## COc1cc(F)cc(C)c1-c1ccc(N[C@@H]2CCCN(C)C2)nn1 [compound 164]
[1]
  pIC50: < 6.00
[2]
  pIC50: < 5.00

## Cc1cc(N[C@@H]2CCCN(CC3CC3)C2)nnc1-c1ccc(F)cc1 [compound 70]
[1]
  pIC50: ≥ 8.00
[2]
  pIC50: < 5.00

## Cc1cc(Cl)ccc1-c1cc(C)c(N[C@@H]2CCCN(C)C2)nn1 [compound 124]
[1]
  pIC50: 7.30 to 8.00
[2]
  pIC50: 5.00 to 5.30

## Cc1cc(N[C@@H]2CCCN(CC(F)F)C2)nnc1-c1ccc(C(F)(F)F)cc1 [compound 60]
[1]
  pIC50: 6.30 to 7.00
[2]
  pIC50: 5.00 to 5.30

## Cc1cc(N[C@@H]2CCCN(C(C)C)C2)nnc1-c1ccc(Cl)cc1 [compound 156]
[1]
  pIC50: ≥ 8.00
[2]
  pIC50: < 5.00

## Cc1ccc(-c2cc(C)c(N[C@@H]3CCCN(C)C3)nn2)cc1 [compound 82]
[1]
  pIC50: < 6.00
[2]
  pIC50: < 5.00

## COc1cc(C(F)(F)F)cc(C)c1-c1ccc(N[C@@H]2CCCN(C)C2)nn1 [compound 75]
[1]
  pIC50: < 6.00
[2]
  pIC50: 5.00 to 5.30

## CCN1C[C@H](F)C[C@@H](Nc2cc(C)c(-c3ccc(Cl)cc3)nn2)C1 [compound 151]
[1]
  pIC50: < 6.00
[2]
  pIC50: 5.30 to 6.00

## Cc1cc(N[C@@H]2CCCN(CCO)C2)nnc1-c1ccc(C(F)(F)F)cc1 [compound 15, 2-[(3R)-3-[[5-methyl-6-[4-(trifluoromethyl)phenyl]pyridazin-3-yl]amino]-1-piperidyl]ethanol]
[1]
  pIC50: 7.30 to 8.00
[2]
  pIC50: < 5.00

## Cc1cc(N[C@H]2CN(C)CC[C@H]2F)nnc1-c1ccc(F)cc1 [compound 121]
[1]
  pIC50: 6.30 to 7.00
[2]
  pIC50: < 5.00

## Cc1cc(-c2nnc(N[C@@H]3CCCN(C)C3)cc2C)ccc1F [compound 62]
[1]
  pIC50: 7.30 to 8.00
[2]
  pIC50: < 5.00

## Cc1cc(N[C@H]2CCCN(C(C)C)C2)nnc1-c1ccc(C(F)(F)F)cc1 [compound 131]
[1]
  pIC50: 6.00 to 6.30
[2]
  pIC50: < 5.00

## Cc1cc(N[C@@H]2CCCN(CCF)C2)nnc1-c1ccc(C(F)(F)F)cc1 [compound 25]
[1]
  pIC50: 7.00 to 7.30
[2]
  pIC50: < 5.00

## Cc1cc(N[C@@H]2CCCN(C)C2)nnc1-c1cccc(Cl)c1 [compound 43]
[1]
  pIC50: < 6.00
[2]
  pIC50: 5.00 to 5.30

## Cc1cc(N[C@@H]2CCCN(C)C2)nnc1-c1ccc(C(F)(F)F)c(C#N)c1 [compound 63]
[1]
  pIC50: 6.30 to 7.00
[2]
  pIC50: < 5.00

## CN1CCC[C@@H](Nc2ccc(-c3ccc(Cl)cc3C(F)(F)F)nn2)C1 [compound 4]
[1]
  pIC50: 7.30 to 8.00
[2]
  pIC50: 5.00 to 5.30

## Cc1cc(-c2ccc(Cl)cc2C(F)(F)F)nnc1N[C@@H]1CCCN(C)C1 [compound 170]
[1]
  pIC50: 7.30 to 8.00
[2]
  pIC50: < 5.00

## Cc1cc(F)cc(C)c1-c1ccc(N[C@@H]2CCCN(C)C2)nn1 [compound 110]
[1]
  pIC50: < 6.00
[2]
  pIC50: 5.00 to 5.30

## CCc1ccc(-c2nnc(N[C@@H]3CCCN(C)C3)cc2C)cc1 [compound 12]
[1]
  pIC50: 7.30 to 8.00
[2]
  pIC50: < 5.00

## Cc1cc(C(F)F)ccc1-c1ccc(N[C@@H]2CCCN(C)C2)nn1 [compound 199]
[1]
  pIC50: 7.00 to 7.30
[2]
  pIC50: < 5.00

## CCc1cc(-c2ccc(C(F)(F)F)cc2)nnc1N[C@@H]1CCCN(C)C1 [compound 30]
[1]
  pIC50: 6.30 to 7.00
[2]
  pIC50: < 5.00

## Cc1cc(N[C@@H]2C[C@@H](F)CN(C(C)C)C2)nnc1-c1ccc(C(F)(F)F)cc1 [compound 144]
[1]
  pIC50: 6.30 to 7.00
[2]
  pIC50: 5.00 to 5.30

## Cc1cc(-c2ccccc2C#N)nnc1N[C@@H]1CCCN(C)C1 [compound 90]
[1]
  pIC50: < 6.00
[2]
  pIC50: < 5.00

## Cc1cc(-c2cc(C)c(N[C@@H]3CCCN(C)C3)nn2)ccc1F [compound 112]
[1]
  pIC50: < 6.00
[2]
  pIC50: < 5.00

## CN1CCC[C@@H](Nc2ccc(-c3ccc(F)cc3C(F)(F)F)nn2)C1 [compound 130]
[1]
  pIC50: 7.30 to 8.00
[2]
  pIC50: 5.00 to 5.30

## Cc1cc(N[C@@H]2CCCN(CC(F)(F)F)C2)nnc1-c1ccc(F)cc1 [compound 115]
[1]
  pIC50: < 6.00
[2]
  pIC50: 5.00 to 5.30

## Cc1cc(N[C@@H]2CCCN(C)C2)nnc1-c1ccccc1 [compound 54]
[1]
  pIC50: < 6.00
[2]
  pIC50: < 5.00

## CN1CCC[C@@H](Nc2nnc(-c3ccc(F)cc3)cc2C(F)(F)F)C1 [compound 148]
[1]
  pIC50: < 6.00
[2]
  pIC50: < 5.00

## Cc1cc(-c2ccc(F)c(Cl)c2)nnc1N[C@@H]1CCCN(C)C1 [compound 73]
[1]
  pIC50: 6.30 to 7.00
[2]
  pIC50: < 5.00

## Cc1cccc(-c2cc(C)c(N[C@@H]3CCCN(C)C3)nn2)c1 [compound 92]
[1]
  pIC50: < 6.00
[2]
  pIC50: < 5.00

## Cc1cc(N[C@@H]2CCCN(C)C2)nnc1-c1cc(C)c(F)c(C)c1 [compound 33]
[1]
  pIC50: 6.30 to 7.00
[2]
  pIC50: < 5.00

## COc1ccc(-c2nnc(N[C@@H]3CCCN(C)C3)cc2C)cc1 [compound 32]
[1]
  pIC50: 6.30 to 7.00
[2]
  pIC50: < 5.00

## Cc1cc(Cl)ccc1-c1nnc(N[C@@H]2CCCN(C)C2)cc1C [compound 123]
[1]
  pIC50: ≥ 8.00
[2]
  pIC50: < 5.00

## Cc1cccc(-c2nnc(N[C@@H]3CCCN(C)C3)cc2C)c1 [compound 44]
[1]
  pIC50: 6.30 to 7.00
[2]
  pIC50: < 5.00

## Cc1cc(N[C@@H]2CCCN(C)C2)nnc1-c1ccc(C(F)(F)F)cc1F [compound 6]
[1]
  pIC50: 7.30 to 8.00
[2]
  pIC50: < 5.00

## CCN1CCC[C@@H](Nc2nnc(-c3ccc(F)cc3)cc2C(F)(F)F)C1 [compound 197]
[1]
  pIC50: < 6.00
[2]
  pIC50: < 5.00

## Cc1cc(Cl)ccc1-c1nnc(N(C)[C@@H]2CCCN(C)C2)cc1C [compound 204]
[1]
  pIC50: 6.00 to 6.30
[2]
  pIC50: < 5.00

## CN1CCC[C@@H](Nc2ccc(-c3ccc(Cl)cc3Cl)nn2)C1 [compound 18]
[1]
  pIC50: 7.00 to 7.30
[2]
  pIC50: 5.00 to 5.30

## Cc1cc(N[C@@H]2C[C@@H](F)CN(C)C2)nnc1-c1ccc(F)cc1 [compound 140]
[1]
  pIC50: < 6.00
[2]
  pIC50: < 5.00

## Cc1cc(N[C@@H]2CCCN(C3CC3)C2)nnc1-c1ccc(F)cc1 [compound 120]
[1]
  pIC50: 7.00 to 7.30
[2]
  pIC50: < 5.00

## Cc1cc(-c2ccc(C(F)(F)F)cc2C#N)nnc1N[C@@H]1CCCN(C)C1 [compound 72]
[1]
  pIC50: 6.30 to 7.00
[2]
  pIC50: < 5.00

## Cc1cc(N[C@@H]2CCCN(C)C2)nnc1-c1ccc(Cl)cc1C(F)(F)F [compound 169]
[1]
  pIC50: 7.30 to 8.00
[2]
  pIC50: < 5.00

## Cc1cc(N[C@@H]2CCCN(C)C2)nnc1-c1cccc(F)c1 [compound 45]
[1]
  pIC50: < 6.00
[2]
  pIC50: < 5.00
